Data set [1] in a line: Caco-2 cell permeability and efflux. The conditions noted are these: human, Caco-2. The class given is in vitro ADME, human.
The subject of data set [2] is D283-med cell line. Description: Cytotoxicity against D283-med cells. Type of data set: cell-based, human. The conditions noted are these: read-out: D283-med IC50; medulloblastoma cell line.
For data set [3], the system named is SF188 cell line. Nature of the data set: Cytotoxicity against SF188 cells. The class given is cell-based, human. As to conditions: read-out: SF188 IC50; glioblastoma cell line.
The subject of data set [4] is H460 cell line. Nature of the data set: Cytotoxicity against H460 cells. The class given is cell-based. As to conditions: read-out: H460 IC50; non-small cell lung cancer cell line.
The nature of data set [5]: PAMPA-BBB permeability assay. As to conditions: PAMPA-BBB. Background: In PAMPA a lipid-coated filter parts donor from acceptor wells.

Some results are limits rather than exact numbers.

In data set [1], `C[C@H]1O[C@@H](O[C@H]2[C@@H](O)C[C@H](O[C@H]3[C@@H](O)C[C@H](O[C@H]4CC[C@@]5(C)[C@H](CC[C@@H]6[C@@H]5C[C@@H](O)[C@]5(C)[C@@H](C7=CC(=O)OC7)CC[C@]65O)C4)O[C@@H]3C)O[C@@H]2C)C[C@H](O)[C@@H]1O` [Digoxin, reference compound] yielded an apparent permeability from apical to basolateral (Papp A→B) of 1.3 ×10⁻⁶ cm/s and a Papp B→A of 13 ×10⁻⁶ cm/s.
As to `CC(C)C[C@H](NC(=O)[C@@H]1Cc2c(F)c(F)c(c(F)c2F)Sc2cccc(c2)CC(=O)N(C)[C@@H](C(C)C)C(=O)N1)C(=O)[C@@]1(C)CO1` [Compound 19, (5S,8S)-3^2,3^3,3^5,3^6-Tetrafluoro-8-isopropyl-9-methyl-N-((S)-4-methyl-1-((R)-2-methyloxiran-2-yl)-1-oxopentan-2-yl)-7,10-dioxo-2-thia-6,9-diaza-1(1,3),3(1,4)-dibenzenacycloundecaphane-5-carboxamide], the IC50 is 10800 nM in data set [2], 12300 nM in data set [3] and over 15000 nM in data set [4].
The matching figures for `CC(C)C[C@H](NC(=O)[C@@H]1Cc2c(F)c(F)c(c(F)c2F)Sc2cccc(c2)CC(=O)N[C@H](C(C)C)CC(=O)N1)C(=O)[C@@]1(C)CO1` [Compound 16, (5S,9S)-3^2,3^3,3^5,3^6-Tetrafluoro-9-isopropyl-N-((S)-4-methyl-1-((R)-2-methyloxiran-2-yl)-1-oxopentan-2-yl)-7,11-dioxo-2-thia-6,10-diaza-1(1,3),3(1,4)-dibenzenacyclododecaphane-5-carboxamide]: 6090 nM, over 15000 nM and over 15000 nM.
For `CC(C)C[C@H](NC(=O)[C@@H]1Cc2c(F)c(F)c(c(F)c2F)Sc2cccc(c2)CC(=O)NCC(=O)N1)C(=O)[C@@]1(C)CO1` [Compound 21, (S)-32,33,35,36-Tetrafluoro-N-((S)-4-methyl-1-((R)-2-methyloxiran-2-yl)-1-oxopentan-2-yl)-7,10-dioxo-2-thia-6,9-diaza-1(1,3),3(1,4)-dibenzenacycloundecaphane-5-carboxamide] the same measures were 5000 nM, over 15000 nM and over 15000 nM.
For “(5S,8S)-32,33,35,36-Tetrafluoro-8-isopropyl-N-((S)-4-methyl-1-((R)-2-methyloxiran-2-yl)-1-oxopentan-2-yl)-7,10-dioxo-2-thia-6,9-diaza-1,3(1,4)-dibenzenacyclododecaphane-5-carboxamide [Compound 18]” the same measures were 232 ± 12 nM, 239 ± 10 nM and 1080 nM.
Turning to `CC(C)C[C@H](NC(=O)[C@@H]1Cc2c(F)c(F)c(c(F)c2F)S(=O)(=O)c2cccc(c2)CC(=O)N[C@@H](C(C)C)CC(=O)N1)C(=O)[C@@]1(C)CO1` [Compound 26, (5S,9R)-3^2,3^3,3^5,3^6-Tetrafluoro-9-isopropyl-N-((S)-4-methyl-1-((R)-2-methyloxiran-2-yl)-1-oxopentan-2-yl)-7,11-dioxo-2-thia-6,10-diaza-1(1,3),3(1,4)-dibenzenacyclododecaphane-5-carboxamide 2,2-dioxide], the results for the concentration for half-maximal inhibition (IC50) in data set [2], in data set [3] and in data set [4] were 472 ± 36 nM, 673 ± 50 nM and 2360 nM, respectively.
The matching figures for `CC(=O)O[C@@H](C)[C@@H]1NC(=O)Cc2cccc(c2)S(=O)(=O)c2c(F)c(F)c(c(F)c2F)C[C@@H](C(=O)N[C@@H](CC(C)C)C(=O)[C@@]2(C)CO2)NC1=O` [Compound 28, (S)-1-((5S,8S)-3^2,3^3,3^5,3^6-Tetrafluoro-5-(((S)-4-methyl-1-((R)-2-methyloxiran-2-yl)-1-oxopentan-2-yl)carbamoyl)-2,2-dioxido-7,10-dioxo-2-thia-6,9-diaza-1(1,3),3(1,4)-dibenzenacycloundecaphane-8-yl)ethyl acetate]: 44 ± 6 nM, 148 ± 35 nM and 549 ± 21 nM.
Regarding `CC(C)C[C@H](NC(=O)[C@@H]1Cc2c(F)c(F)c(c(F)c2F)[S+]([O-])c2cccc(c2)CC(=O)N[C@@H](C(C)(C)O)C(=O)N1)C(=O)[C@@]1(C)CO1` (stereo partly drawn) [Compound 23, (5S,8S)-3^2,3^3,3^5,3^6-Tetrafluoro-8-(2-hydroxypropan-2-yl)-N-((S)-4-methyl-1-((R)-2-methyloxiran-2-yl)-1-oxopentan-2-yl)-7,10-dioxo-2-thia-6,9-diaza-1(1,3),3(1,4)-dibenzenacycloundecaphane-5-carboxamide 2-oxide], the IC50 was 176 ± 2 nM in data set [2], 205 ± 21 nM in data set [3] and 1640 ± 87 nM in data set [4].
The matching figures for `CC(C)C[C@H](NC(=O)[C@@H]1Cc2c(F)c(F)c(c(F)c2F)Sc2cccc(c2)CC(=O)N[C@@H](C(C)C)CC(=O)N1)C(=O)[C@@]1(C)CO1` [Compound 17, (5S,9R)-3^2,3^3,3^5,3^6-Tetrafluoro-9-isopropyl-N-((S)-4-methyl-1-((R)-2-methyloxiran-2-yl)-1-oxopentan-2-yl)-7,11-dioxo-2-thia-6,10-diaza-1(1,3),3(1,4)-dibenzenacyclododecaphane-5-carboxamide]: 1800 nM, 2460 nM and 5380 nM.
As for `CC(C)C[C@H](NC(=O)[C@@H]1Cc2c(F)c(F)c(c(F)c2F)S(=O)(=O)c2cccc(c2)CC(=O)N[C@@H]([C@H](C)O)C(=O)N1)C(=O)[C@@]1(C)CO1` [Compound 27, (5S,8S)-3^2,3^3,3^5,3^6-Tetrafluoro-8-((S)-1-hydroxyethyl)-N-((S)-4-methyl-1-((R)-2-methyloxiran-2-yl)-1-oxopentan-2-yl)-7,10-dioxo-2-thia-6,9-diaza-1(1,3),3(1,4)-dibenzenacycloundecaphane-5-carboxamide 2,2-dioxide], the IC50 in data set [2] was 28 ± 10 nM; in data set [3], 72 ± 10 nM; in data set [4], 360 ± 56 nM. Moreover, the “% Recovery” value in data set [5] came out at 88%. For the same molecule, in data set [5], the “Mean Permeability” value is reported as 1.40 10^−6 cm/sec.
Regarding `CC(C)C[C@H](NC(=O)[C@@H]1Cc2c(F)c(F)c(c(F)c2F)S(=O)(=O)c2cccc(c2)CC(=O)N[C@@H](C(C)(C)O)C(=O)N1)C(=O)[C@@]1(C)CO1` [Compound 24, (5S,8S)-3^2,3^3,3^5,3^6-Tetrafluoro-8-(2-hydroxypropan-2-yl)-N-((S)-4-methyl-1-((R)-2-methyloxiran-2-yl)-1-oxopentan-2-yl)-7,10-dioxo-2-thia-6,9-diaza-1(1,3),3(1,4)-dibenzenacycloundecaphane-5-carboxamide 2,2-dioxide], the 50% inhibitory concentration (IC50) came out at 54 ± 2 nM in data set [2], 100 ± 7 nM in data set [3] and 410 ± 59 nM in data set [4]. Also, the “% Recovery” value in data set [5] is reported as 79%. The “Mean Permeability” value in data set [5] was 2.06 10^−6 cm/sec.
Regarding `CC(C)C[C@H](NC(=O)[C@@H]1Cc2ccc(cc2)S(=O)(=O)CCCCCC(=O)NC(C(C)C)C(=O)N1)C(=O)[C@@]1(C)CO1` (stereo partly drawn) [Compound 38, (13S)-10-Isopropyl-N-((S)-4-methyl-1-((R)-2-methyloxiran-2-yl)-1-oxopentan-2-yl)-8,11-dioxo-2-thia-9,12-diaza-1(1,4)-benzenacyclotetradecaphane-13-carboxamide 2,2-dioxide], the figures for the half-maximal inhibitory concentration (IC50) in data set [2], in data set [3] and in data set [4] were 16 ± 2 nM, 157 ± 45 nM and 287 ± 42 nM, respectively. In addition, the “% Recovery” value in data set [5] was found to be 99%. The “Mean Permeability” value in data set [5] is reported as 0.27 10^−6 cm/sec.

The term Papp A→B denotes how fast a substance crosses the layer from the apical side. Read a low Papp A→B as poor permeation. By Papp B→A is commonly meant how fast a substance crosses the layer from the basolateral side. Usually IC50 stands for the concentration that gives 50% inhibition.
